| Compound | logP |
| --- | --- |
| O=c1[nH]cnc2ccccc12 | 0.77 |

Remark: another data set of the same source

| Compound | logP |
| --- | --- |
| O=C1C=CC(=O)C(c2ccccc2)=C1 | 1.95 |
| O=C1CC(c2ccccc2)c2ccccc2N1 (stereo unspecified) | 2.79 |
| O=C1NC(=O)C(c2ccccc2)C(=O)N1 | -0.17 |
| c1ccc(-c2nc3ccccc3o2)cc1 | 3.67 |
| c1ccc(-c2ncc3ccccc3n2)cc1 | 3.42 |
| c1ccc(-c2c[nH]nn2)cc1 | 1.91 |
| O=C1CCC(c2ccccc2)CC1 | 2.3 |
| O=C1Nc2ccccc2C1c1ccccc1 (stereo unspecified) | 2.59 |
| c1ccc(-c2ccncc2)cc1 | 2.58 |
| O=C1NC(=O)c2cc(-c3ccccc3)ccc21 | 2.97 |
| c1ccc(C2CCNCC2)cc1 | 2.39 |
| c1ccc(-c2nc[nH]n2)cc1 | 1.54 |
| c1ccc(-c2nccs2)cc1 | 2.77 |
| O=C1CCc2ccccc2N1 | 1.34 |
| c1ccc(-c2cnc3ccccc3n2)cc1 | 3.48 |
| O=C1Nc2ccccc2CC1c1ccccc1 (stereo unspecified) | 2.93 |
| O=c1[nH]c2ccccc2cc1-c1ccccc1 | 2.99 |
| c1ccc(C2CCCN2)cc1 (stereo unspecified) | 1.89 |
| O=c1[nH]nc(-c2ccccc2)c2ccccc12 | 2.48 |
| c1ccc(-c2nc3ccccc3[nH]2)cc1 | 3.3 |

— the SangsterLogP compilation
